Measurements: the NIST ThermoML archive (doi:10.1021/acs.jced.5b00367)

Test: wn = mass fraction of the nth substance listed
Conditions: 101 kPa, Liquid, Alternating current cell with electrodes, w1 = 0.01

CCCCCCCCCCCC[N+](CC)(CC)CCCCCCCCCCCC.[Br-] [didodecyldiethylammonium bromide] + O
Conditions	electrical conductivity [S/m]
291.85 K	0.00363
291.95 K	0.00362
292.05 K	0.00364
292.15 K	0.00366
292.25 K	0.00366
292.35 K	0.00367
292.45 K	0.00362
292.55 K	0.00374
292.65 K	0.00369
292.75 K	0.00367
292.85 K	0.00372
292.95 K	0.00369
293.05 K	0.00378
293.15 K	0.00377
293.25 K	0.00376
293.35 K	0.00376
293.45 K	0.0037
293.55 K	0.00375
293.65 K	0.00376
293.75 K	0.00372
293.85 K	0.00383
293.95 K	0.00378
294.05 K	0.0038
294.15 K	0.00381
294.25 K	0.0038
294.35 K	0.00381
294.45 K	0.00383
294.55 K	0.00382
294.65 K	0.00384
294.75 K	0.00385
294.85 K	0.00386
294.95 K	0.00387
295.05 K	0.00389
295.15 K	0.00389
295.25 K	0.00386
295.35 K	0.00396
295.45 K	0.00395
295.55 K	0.00387
295.65 K	0.00396
296.45 K	0.00389
296.55 K	0.00397
296.75 K	0.00394
297.45 K	0.00396
297.85 K	0.00401
298.15 K	0.00402
298.55 K	0.00399
298.75 K	0.00405
298.95 K	0.00402
299.15 K	0.00407
299.55 K	0.00409
299.75 K	0.00406
300.05 K	0.00407
300.45 K	0.00419
300.75 K	0.00428
300.95 K	0.00431
301.55 K	0.00453
301.85 K	0.00472
302.15 K	0.0048
302.35 K	0.005
302.75 K	0.00518
303.05 K	0.00543
303.45 K	0.00568
303.75 K	0.00609
304.55 K	0.00686
304.85 K	0.00713
305.15 K	0.00765
305.55 K	0.00812
305.85 K	0.00833
306.05 K	0.00891
306.35 K	0.00946
307.35 K	0.0136
307.55 K	0.0157
307.95 K	0.016
308.25 K	0.0159
308.35 K	0.016
308.75 K	0.0162
308.95 K	0.0165
309.25 K	0.0167
309.75 K	0.0169
310.05 K	0.0171
310.15 K	0.0172
310.45 K	0.0175
310.65 K	0.0177
310.85 K	0.0179
311.05 K	0.018
311.25 K	0.0181
311.45 K	0.0183
311.65 K	0.0184
311.75 K	0.0185
311.85 K	0.0187
311.95 K	0.0188
312.15 K	0.0189
312.35 K	0.0192
312.55 K	0.0194
312.65 K	0.0194
312.85 K	0.0196
312.95 K	0.0196
313.35 K	0.0201
313.65 K	0.0204
313.85 K	0.0205
313.95 K	0.0207
314.05 K	0.0208
314.15 K	0.0209
314.35 K	0.021
314.45 K	0.0212
314.65 K	0.0213
314.75 K	0.0214
314.85 K	0.0216
314.95 K	0.0217
315.05 K	0.0218
315.15 K	0.0219
315.25 K	0.022
315.35 K	0.0222
